“Also recorded” adds a separate entry of the source.
Tests used:
[1] = system: RANKL expression in primary cultured osteoblasts; assay: real-time quantitative PCR of RANKL mRNA in primary cultured osteoblasts; format: cell-based, human; settings: for RANKL mRNA levels (in words): osteoblasts, FIG. 2b
Method: (§1) Human normal cranial suture were obtained after signed informed consent during routine surgery for craniosynostosis. Osteoblasts were cultured in Dulbecco's modified Eagle medium (with 10% fetal bovine serum) as described elsewhere (De Pollack, C. et al. 1996). […] Cells were harvested at day 3. Real-time quantitative PCR using Light Cycler technology (Roche Manheim) was performed for OPG and RANKL mRNA in each sample. The experiments were performed five times. In each experiment, samples were run in triplicate. The amounts of OPG and RANKL mRNA were normalized to the amount of β-actin mRNA. Student test was used for p values determination.

[2] = system: OPG expression in primary cultured osteoblasts; assay: real-time quantitative PCR of OPG mRNA in primary cultured osteoblasts; format: cell-based, human; settings: for OPG expression compared to control values: p<0.005; for OPG mRNA levels (in words): osteoblasts, FIG. 2b
Method: as §1

TXAS = settings: read-out: IC50 as selective inhibitor of TXAS; cited from earlier work

Row | Structure (SMILES) | RANKL expression compared to control values ([1]; CTA2 5 μM added at day one, harvested day 3, p<0.005) | RANKL expression compared to control values ([1]; CTA2 15 μM added at day one, harvested day 3, p<0.03) | RANKL mRNA levels (in words) [1] | OPG expression compared to control values ([2]; CTA2 5 μM added at day one, harvested day 3) | OPG expression compared to control values ([2]; CTA2 15 μM added at day one, harvested day 3) | OPG mRNA levels (in words) [2] | RANKL expression compared to control values ([1]; Ozagrel 0.25 μM added daily during 3 days, normalized to β-actin mRNA, p<0.005) | OPG expression compared to control values ([2]; Ozagrel 0.25 μM added daily during 3 days, normalized to β-actin mRNA) | IC50 (TXAS)
1 | CCCCC[C@H](O)/C=C/[C@H]1CC2CC(C2)[C@@H]1C/C=C\CCCC(=O)O [CTA2] | +94% | +471% | augmentation; also recorded: increased | −40% | −53% | diminution; also recorded: decreased | – | – | –
2 | O=C(O)/C=C/c1ccc(Cn2ccnc2)cc1 [Ozagrel] | – | – | diminution | – | – | augmentation | −78% | +50% | 11 nM

Source: patent US9834820B2, “Methods for the treatment and diagnosis of bone mineral density related diseases” (INSERM (Institut National de la Sante et de la Recherche …, priority 2007, dated 2017)
